US9573911B2, “Diphosphate mimetics and uses thereof” (President and Fellows of Harvard College, priority 2011, dated 2017)

Legend:
MCF-10A ErbB2 cells = assay: Western blot of BZX-treated human breast cancer cells (O-GlcNAcylation); format: cell-based; conditions: 200 μM
Procedure: Western Blot of BZX-Treated Human Breast Cancer Cells MCF-10A ErbB2 cells were obtained from Joan Brugge's lab at Harvard Medical School (Boston, Mass.). Cells were maintained in DMEM/F12 (Invitrogen) supplemented with 5% horse serum (Invitrogen), 20 ng/ml EGF (Peprotech), 10 μg/ml insulin (Sigma), 100 ng/ml cholera toxin (Sigma), […] hydrocortisone (Sigma), 50 U/ml penicillin and 50 μg/ml streptomycin (Invitrogen). When cells were grown to 70% confluence, old growth medium was removed. Cells were rinsed twice with PBS, and were grown in glucose starvation medium (DMEM-no glucose; Invitrogen) supplemented with 1% horse serum, 50 U/ml penicillin and 50 μg/ml streptomycin) in the absence (control) and presence of (2) (200 μM) for 4 h. PUGNAc (100 μM, Sigma) and glucosamine (2 mM, EMD) were added to the cells and incubated for another 3 h. Cell lysates from 2−5×10^6 cells were prepared in M-PER mammalian protein extraction reagent (Pierce) supplemented with protease inhibitor cocktail (Sigma). Lysates were cleared by centrifugation at 16,000 g for 10 min at 4° C. and analyzed by SDS-PAGE. Proteins were transferred to a nitrocellulose membrane (Bio-Rad Laboratories) and O-GlcNAcylation was detected with anti-O-GlcNAc antibody (CTD 110.6, Sigma, used at 1:5,000) and a secondary anti-mouse IgM-HRP antibody (Pierce, used at 1:20,000). Western Blot of BZX Inhibitor Treated Cell Lysates

OGT = biological target: T1, OGT (Homo sapiens, UniProt O15294); assay: Time-dependent inactivation of OGT with BZX compounds; format: biochemical
T1 construct: hOGT4.5 construct (spanning residues 313-1031 based on the numbering of the full length human protein); made in house
T1 sequence (O15294 313-1031 isoform O15294-3): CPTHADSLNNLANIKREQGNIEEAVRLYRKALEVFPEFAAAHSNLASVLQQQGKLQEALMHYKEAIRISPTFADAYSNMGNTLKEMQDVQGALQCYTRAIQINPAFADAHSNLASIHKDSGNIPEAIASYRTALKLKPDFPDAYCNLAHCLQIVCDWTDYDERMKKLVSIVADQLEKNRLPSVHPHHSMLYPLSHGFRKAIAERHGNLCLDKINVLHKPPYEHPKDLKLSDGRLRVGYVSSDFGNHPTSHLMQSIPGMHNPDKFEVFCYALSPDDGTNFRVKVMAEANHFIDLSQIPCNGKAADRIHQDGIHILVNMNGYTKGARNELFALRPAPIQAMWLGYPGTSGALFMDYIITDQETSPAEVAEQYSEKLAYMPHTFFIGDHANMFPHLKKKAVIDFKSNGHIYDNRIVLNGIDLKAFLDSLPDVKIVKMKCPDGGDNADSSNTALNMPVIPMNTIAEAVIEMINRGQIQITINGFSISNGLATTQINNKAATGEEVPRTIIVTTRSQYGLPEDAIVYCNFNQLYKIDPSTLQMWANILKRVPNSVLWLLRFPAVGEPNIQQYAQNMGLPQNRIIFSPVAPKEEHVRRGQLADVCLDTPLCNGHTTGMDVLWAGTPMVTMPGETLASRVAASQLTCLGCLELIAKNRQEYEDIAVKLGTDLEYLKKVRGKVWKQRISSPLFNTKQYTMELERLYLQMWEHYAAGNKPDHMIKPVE
Excerpt: Compound (1) was identified in a high-throughput screen of 65,000 compounds (FIG. 1). See, e.g., Gross et al., J. Am. Chem. Soc. (2005) 127:14588-14589. It contains a dicarbamate moiety that links two aromatic groups. This compound features a conjugated chemical structure and both carbamate carbonyls are potentially reactive. See, e.g., Alexander et al., Chem. Biol. (2005) 12:1179-1187. […] A small panel of related compounds was made from commercially available building blocks in order to identify structural features that might improve potency. Time-dependent inactivation studies were carried out in which OGT was preincubated with a three-fold excess of each compound for 5 min, and the mixture was then diluted 100-fold into buffer containing UDP-^14C-GlcNAc and the well-characterized peptide substrate, CKII. See, e.g., Kreppel et al., J. Biol. Chem. (1999) 274:32015-32022). Enzyme activity was measured using a previously developed peptide capture assay. See, e.g., Gross et al., J. Am. Chem. Soc. (2005) 127:14588-14589.
Each BZX compound (7.5 μM) was preincubated with 5 μM OGT in reaction buffer (125 mM NaCl, 1 mM EDTA, 20 mM potassium phosphate, pH 7.4, and 500 μM tris(hydroxypropyl)phosphine (THP)) at room temperature for different amount of time, then diluted 100-fold, mixed with substrates (6 μM UDP-^14C-GlcNAc and 500 μM CKII peptide (KKKYPGGSTPVSSANMM)) and allowed to react for another 2 h. Enzyme activity was tested with the peptide capture assay as previously reported. See, e.g., Gross et al., J. Am. Chem. Soc. (2005) 127:14588-14589. The final volume of each reaction was 20 μl, and the experiments were conducted in triplicate. The activities of OGT mutants were also tested in triplicate as previously reported. See, e.g., Gross supra.

SGKL (SGK3) = biological target: T2, SGKL (SGK3) (Homo sapiens, UniProt Q96BR1); assay: Kinase profiling, Invitrogen Z'-LYTE; format: biochemical; conditions: Table 2
T2 construct: purchased Invitrogen
T2 sequence (Q96BR1 1-496): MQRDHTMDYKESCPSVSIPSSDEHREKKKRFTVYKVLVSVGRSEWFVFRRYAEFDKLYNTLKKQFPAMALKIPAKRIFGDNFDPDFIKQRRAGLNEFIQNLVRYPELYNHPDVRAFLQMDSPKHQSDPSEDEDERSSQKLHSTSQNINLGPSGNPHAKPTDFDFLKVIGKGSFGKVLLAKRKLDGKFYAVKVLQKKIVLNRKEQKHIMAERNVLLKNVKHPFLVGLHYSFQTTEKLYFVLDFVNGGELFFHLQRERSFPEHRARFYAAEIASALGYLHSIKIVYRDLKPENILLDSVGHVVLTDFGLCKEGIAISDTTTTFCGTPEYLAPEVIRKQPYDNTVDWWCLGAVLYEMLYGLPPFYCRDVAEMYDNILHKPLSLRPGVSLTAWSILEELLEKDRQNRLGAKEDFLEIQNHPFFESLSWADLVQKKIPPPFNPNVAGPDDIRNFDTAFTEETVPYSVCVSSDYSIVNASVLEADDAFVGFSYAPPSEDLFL
Procedure: Kinase profiling was conducted using Invitrogen Z'-LYTE screening protocol and assay conditions found at www.invitrogen.com. Compound (2) inhibited PLK1 completely at 5 μM.

Structure (SMILES): COc1ccc(OC(=O)n2c(=O)oc3cc(C(C)=O)ccc32)cc1 [Compound 2]
- inhibition of O-GlcNAcylation in cells (MCF-10A ErbB2 cells): inhibits global O-GlcNAcylation in cells
- inactivation time course of OGT (OGT; 1.5:1 inhibitor:enzyme ratio): fully inactivated OGT
- OGT inactivation in the presence of UDP-GlcNAc in the preincubation mixture (OGT; OGT 5 μM, compound 20 μM, UDP-GlcNAc 40 μM, 2-20 min): UDP-GlcNAc reduced the rate of inactivation
- time to full inactivation of OGT (OGT; near 1:1 ratio): ≤ 5 min
- % Inhibition Point 1 (SGKL (SGK3)): −140%
- % Inhibition Point 2 (SGKL (SGK3)): −150%
- % Inhibition mean (SGKL (SGK3)): −145%
